Laboratory results as given in patent EP0326329B1, “Quinazoline derivatives useful as insecticides” (Dow AgroSciences LLC, priority 1988, dated 1989).

system: Southern corn rootworm (Diabrotica undecimpuctata howardi Barber); assay: Mite/insect screen, soil treatment (CRW); format: in vivo; settings: Diabrotica; percent mortality; soil treatment, CRW rate 12.00 ppm; read-out: CRW RESULTS %
Protocol: (§1) The compounds of Examples 1-203 were tested for miticidal and insecticidal activity in the following mite/insect screen.
(§2) Each test compound was formulated by dissolving the compound in acetone/alcohol (50:50) mixture containing 23 g of "TOXIMUL R" (sulfonate/nonionic emulsifier blend) and 13 g of "TOXIMUL S" (sulfonate/nonionic emulsifier blend) per liter. These mixtures were then diluted with water to give the indicated concentrations.
Activity on Southern corn rootworm (Diabrotica undecimpuctata howardi Barber) was evaluated by adding two ml of tap water, a presoaked corn seed, and 15 g of dry sandy soil to a one ounce plastic container. The soil was treated with 1 mL of test solution containing a pre-determined concentration of test compound. After six to 12 hours of drying, five 2-3 instar corn rootworm larvae were added to the individual cups, which were then capped and held at 23°C.
(§3) After standard exposure periods, percent mortality and phytotoxicity were evaluated. […]

Compound | mortality at 12 ppm
CC(C)c1ccc(CCNc2ncnc3cc(Cl)ccc23)cc1 [Example 40, 7-chloro-N-[2-[4-(i-propyl)phenyl]ethyl]-4-quinazolinamine] | 0%
c1ccc(CCCCOc2ncnc3ccccc23)cc1 [Example 42, 4-(4-phenylbutoxy)quinazoline] | 0%
Fc1cccc2c(OCCc3ccc(Cl)cc3)ncnc12 [Example 55, 4-[2-(4-chlorophenyl)ethoxy]-8-fluoroquinazoline] | 0%

same assay, conditions: Diabrotica; percent mortality; soil treatment, CRW rate 24.00 ppm; read-out: CRW RESULTS %

Compound | mortality at 24 ppm
CC(C)c1ccc(CCNc2ncnc3cc(Cl)ccc23)cc1 [Example 40, 7-chloro-N-[2-[4-(i-propyl)phenyl]ethyl]-4-quinazolinamine] | 0%
Clc1cccc(CCOc2ncnc3ccccc23)c1 [Example 41, 4-[2-(3-chlorophenyl)ethoxy]quinazoline] | 0%
c1ccc(CCCCOc2ncnc3ccccc23)cc1 [Example 42, 4-(4-phenylbutoxy)quinazoline] | 0%
Cc1cc(C)c(CCOc2ncnc3ccccc23)c(C)c1 [Example 43, 4-[2-(2,4,6-trimethylphenyl)ethoxy]quinazoline] | 0%
Fc1cccc2c(OCCc3ccc(Cl)cc3)ncnc12 [Example 55, 4-[2-(4-chlorophenyl)ethoxy]-8-fluoroquinazoline] | 0%

same assay, conditions: percent mortality; rate not given

Compound | CRW RESULTS %
Clc1cccc(CCOc2ncnc3ccccc23)c1 [Example 41, 4-[2-(3-chlorophenyl)ethoxy]quinazoline] | 0%

system: southern armyworm (Spodopetra eridania Cramer); assay: Mite/insect screen, sprayed squash leaves (SAW); format: in vivo; settings: Spodoptera eridania, percent mortality; spray rate 200 ppm; read-out: SAW RESULTS %
Protocol: as §1, §2
(§4) Other plants in the same treatment pot were left uninfested. The leaves were then sprayed with 5 ml of test solution using a DeVilbiss atomizing sprayer at 10 psi. Both surfaces of the leaves were covered until runoff, and then allowed to dry for one hour. Two uninfested leaves were then excised and placed into a Petri dish containing larval southern armyworm (Spodopetra eridania Cramer).
as §3

Compound | mortality at 200 ppm
CC(C)c1ccc(CCNc2ncnc3cc(Cl)ccc23)cc1 [Example 40, 7-chloro-N-[2-[4-(i-propyl)phenyl]ethyl]-4-quinazolinamine] | 40%
c1ccc(CCCCOc2ncnc3ccccc23)cc1 [Example 42, 4-(4-phenylbutoxy)quinazoline] | 0%
Fc1cccc2c(OCCc3ccc(Cl)cc3)ncnc12 [Example 55, 4-[2-(4-chlorophenyl)ethoxy]-8-fluoroquinazoline] | 100%

same assay, conditions: Spodoptera eridania, percent mortality; spray rate 400 ppm; read-out: SAW RESULTS %

Compound | mortality at 400 ppm
CC(C)c1ccc(CCNc2ncnc3cc(Cl)ccc23)cc1 [Example 40, 7-chloro-N-[2-[4-(i-propyl)phenyl]ethyl]-4-quinazolinamine] | 0%
Clc1cccc(CCOc2ncnc3ccccc23)c1 [Example 41, 4-[2-(3-chlorophenyl)ethoxy]quinazoline] | 0%
c1ccc(CCCCOc2ncnc3ccccc23)cc1 [Example 42, 4-(4-phenylbutoxy)quinazoline] | 50%
Cc1cc(C)c(CCOc2ncnc3ccccc23)c(C)c1 [Example 43, 4-[2-(2,4,6-trimethylphenyl)ethoxy]quinazoline] | 0%
Fc1cccc2c(OCCc3ccc(Cl)cc3)ncnc12 [Example 55, 4-[2-(4-chlorophenyl)ethoxy]-8-fluoroquinazoline] | 0%

same assay, conditions: percent mortality; rate not given

Compound | SAW RESULTS %
Clc1cccc(CCOc2ncnc3ccccc23)c1 [Example 41, 4-[2-(3-chlorophenyl)ethoxy]quinazoline] | 0%

system: Twospotted spider mites (Tetranychus urticae Koch); assay: Mite/insect screen, sprayed squash cotyledons (SM); format: in vivo; settings: Tetranychus urticae, percent mortality; spray rate 200 ppm; read-out: SM RESULTS %
Protocol: as §1, §2, §4, §3

Compound | mortality at 200 ppm
CC(C)c1ccc(CCNc2ncnc3cc(Cl)ccc23)cc1 [Example 40, 7-chloro-N-[2-[4-(i-propyl)phenyl]ethyl]-4-quinazolinamine] | 80%
c1ccc(CCCCOc2ncnc3ccccc23)cc1 [Example 42, 4-(4-phenylbutoxy)quinazoline] | 100%
Fc1cccc2c(OCCc3ccc(Cl)cc3)ncnc12 [Example 55, 4-[2-(4-chlorophenyl)ethoxy]-8-fluoroquinazoline] | 100%

same assay, conditions: Tetranychus urticae, percent mortality; spray rate 400 ppm; read-out: SM RESULTS %

Compound | mortality at 400 ppm
CC(C)c1ccc(CCNc2ncnc3cc(Cl)ccc23)cc1 [Example 40, 7-chloro-N-[2-[4-(i-propyl)phenyl]ethyl]-4-quinazolinamine] | 90%
Clc1cccc(CCOc2ncnc3ccccc23)c1 [Example 41, 4-[2-(3-chlorophenyl)ethoxy]quinazoline] | 80%
c1ccc(CCCCOc2ncnc3ccccc23)cc1 [Example 42, 4-(4-phenylbutoxy)quinazoline] | 100%
Cc1cc(C)c(CCOc2ncnc3ccccc23)c(C)c1 [Example 43, 4-[2-(2,4,6-trimethylphenyl)ethoxy]quinazoline] | 0%
Fc1cccc2c(OCCc3ccc(Cl)cc3)ncnc12 [Example 55, 4-[2-(4-chlorophenyl)ethoxy]-8-fluoroquinazoline] | 0%

same assay, conditions: percent mortality; rate not given

Compound | SM RESULTS %
Clc1cccc(CCOc2ncnc3ccccc23)c1 [Example 41, 4-[2-(3-chlorophenyl)ethoxy]quinazoline] | 0%

system: Pseudoperonospora cubensis (downy mildew); assay: Greenhouse Test 1, foliar spray fungicide screen (DOWN MDEW), host squash; format: in vivo; settings: disease control rating, 400 ppm (+++ at 100 ppm)

Compound | DOWN MDEW
CC(C)c1ccc(CCNc2ncnc3cc(Cl)ccc23)cc1 [Example 40, 7-chloro-N-[2-[4-(i-propyl)phenyl]ethyl]-4-quinazolinamine] | +++ (+++ = 90-100% control at 100 ppm)
Clc1cccc(CCOc2ncnc3ccccc23)c1 [Example 41, 4-[2-(3-chlorophenyl)ethoxy]quinazoline] | +++ (+++ = 90-100% control at 100 ppm)
c1ccc(CCCCOc2ncnc3ccccc23)cc1 [Example 42, 4-(4-phenylbutoxy)quinazoline] | +++ (+++ = 90-100% control at 100 ppm)
Cc1cc(C)c(CCOc2ncnc3ccccc23)c(C)c1 [Example 43, 4-[2-(2,4,6-trimethylphenyl)ethoxy]quinazoline] | ++ (++ = 90-100% control at 400 ppm)
Fc1cccc2c(OCCc3ccc(Cl)cc3)ncnc12 [Example 55, 4-[2-(4-chlorophenyl)ethoxy]-8-fluoroquinazoline] | +++ (+++ = 90-100% control at 100 ppm)

system: Pyricularia oryzae (rice blast); assay: not given; format: in vivo; settings: disease control rating, foliar spray, host rice; 400 ppm (+++ at 100 ppm)

Compound | RICE BLAST
CC(C)c1ccc(CCNc2ncnc3cc(Cl)ccc23)cc1 [Example 40, 7-chloro-N-[2-[4-(i-propyl)phenyl]ethyl]-4-quinazolinamine] | ++ (++ = 90-100% control at 400 ppm)
Clc1cccc(CCOc2ncnc3ccccc23)c1 [Example 41, 4-[2-(3-chlorophenyl)ethoxy]quinazoline] | ++ (++ = 90-100% control at 400 ppm)
c1ccc(CCCCOc2ncnc3ccccc23)cc1 [Example 42, 4-(4-phenylbutoxy)quinazoline] | +++ (+++ = 90-100% control at 100 ppm)
Cc1cc(C)c(CCOc2ncnc3ccccc23)c(C)c1 [Example 43, 4-[2-(2,4,6-trimethylphenyl)ethoxy]quinazoline] | ++ (++ = 90-100% control at 400 ppm)
Fc1cccc2c(OCCc3ccc(Cl)cc3)ncnc12 [Example 55, 4-[2-(4-chlorophenyl)ethoxy]-8-fluoroquinazoline] | +++ (+++ = 90-100% control at 100 ppm)

system: Botrytis cinerea (gray mold); assay: Greenhouse Test 1, foliar spray fungicide screen (GRAY MOLD), host grape berries; format: in vivo; settings: disease control rating, 400 ppm (+++ at 100 ppm)

Compound | GRAY MOLD
CC(C)c1ccc(CCNc2ncnc3cc(Cl)ccc23)cc1 [Example 40, 7-chloro-N-[2-[4-(i-propyl)phenyl]ethyl]-4-quinazolinamine] | - (- = 0-19% control at 400 ppm)
Clc1cccc(CCOc2ncnc3ccccc23)c1 [Example 41, 4-[2-(3-chlorophenyl)ethoxy]quinazoline] | - (- = 0-19% control at 400 ppm)
c1ccc(CCCCOc2ncnc3ccccc23)cc1 [Example 42, 4-(4-phenylbutoxy)quinazoline] | - (- = 0-19% control at 400 ppm)
Cc1cc(C)c(CCOc2ncnc3ccccc23)c(C)c1 [Example 43, 4-[2-(2,4,6-trimethylphenyl)ethoxy]quinazoline] | - (- = 0-19% control at 400 ppm)
Fc1cccc2c(OCCc3ccc(Cl)cc3)ncnc12 [Example 55, 4-[2-(4-chlorophenyl)ethoxy]-8-fluoroquinazoline] | - (- = 0-19% control at 400 ppm)

system: Puccinia recondita tritici (leaf rust); assay: Greenhouse Test 1, foliar spray fungicide screen (LEAF RUST), host wheat; format: in vivo; settings: disease control rating, 400 ppm (+++ at 100 ppm)

Compound | LEAF RUST
CC(C)c1ccc(CCNc2ncnc3cc(Cl)ccc23)cc1 [Example 40, 7-chloro-N-[2-[4-(i-propyl)phenyl]ethyl]-4-quinazolinamine] | +++ (+++ = 90-100% control at 100 ppm)
Clc1cccc(CCOc2ncnc3ccccc23)c1 [Example 41, 4-[2-(3-chlorophenyl)ethoxy]quinazoline] | +++ (+++ = 90-100% control at 100 ppm)
c1ccc(CCCCOc2ncnc3ccccc23)cc1 [Example 42, 4-(4-phenylbutoxy)quinazoline] | +++ (+++ = 90-100% control at 100 ppm)
Cc1cc(C)c(CCOc2ncnc3ccccc23)c(C)c1 [Example 43, 4-[2-(2,4,6-trimethylphenyl)ethoxy]quinazoline] | ++ (++ = 90-100% control at 400 ppm)
Fc1cccc2c(OCCc3ccc(Cl)cc3)ncnc12 [Example 55, 4-[2-(4-chlorophenyl)ethoxy]-8-fluoroquinazoline] | +++ (+++ = 90-100% control at 100 ppm)

system: Erysiphe graminis tritici (powdery mildew); assay: Greenhouse Test 1, foliar spray fungicide screen (POWD MDEW), host wheat; format: in vivo; settings: disease control rating, 400 ppm (+++ at 100 ppm)

Compound | POWD MDEW
CC(C)c1ccc(CCNc2ncnc3cc(Cl)ccc23)cc1 [Example 40, 7-chloro-N-[2-[4-(i-propyl)phenyl]ethyl]-4-quinazolinamine] | +++ (+++ = 90-100% control at 100 ppm)
Clc1cccc(CCOc2ncnc3ccccc23)c1 [Example 41, 4-[2-(3-chlorophenyl)ethoxy]quinazoline] | +++ (+++ = 90-100% control at 100 ppm)
c1ccc(CCCCOc2ncnc3ccccc23)cc1 [Example 42, 4-(4-phenylbutoxy)quinazoline] | +++ (+++ = 90-100% control at 100 ppm)
Cc1cc(C)c(CCOc2ncnc3ccccc23)c(C)c1 [Example 43, 4-[2-(2,4,6-trimethylphenyl)ethoxy]quinazoline] | ++ (++ = 90-100% control at 400 ppm)
Fc1cccc2c(OCCc3ccc(Cl)cc3)ncnc12 [Example 55, 4-[2-(4-chlorophenyl)ethoxy]-8-fluoroquinazoline] | +++ (+++ = 90-100% control at 100 ppm)

system: melon aphids (Aphis gossypii Glover); assay: Mite/insect screen, sprayed squash cotyledons (MA); format: in vivo; settings: Aphis gossypii, percent mortality; spray rate 200 ppm; read-out: MA RESULTS %
Protocol: as §1, §2, §4, §3

Compound | mortality at 200 ppm
CC(C)c1ccc(CCNc2ncnc3cc(Cl)ccc23)cc1 [Example 40, 7-chloro-N-[2-[4-(i-propyl)phenyl]ethyl]-4-quinazolinamine] | 20%
c1ccc(CCCCOc2ncnc3ccccc23)cc1 [Example 42, 4-(4-phenylbutoxy)quinazoline] | 100%
Fc1cccc2c(OCCc3ccc(Cl)cc3)ncnc12 [Example 55, 4-[2-(4-chlorophenyl)ethoxy]-8-fluoroquinazoline] | 100%

same assay, conditions: Aphis gossypii, percent mortality; spray rate 400 ppm; read-out: MA RESULTS %

Compound | mortality at 400 ppm
CC(C)c1ccc(CCNc2ncnc3cc(Cl)ccc23)cc1 [Example 40, 7-chloro-N-[2-[4-(i-propyl)phenyl]ethyl]-4-quinazolinamine] | 0%
Clc1cccc(CCOc2ncnc3ccccc23)c1 [Example 41, 4-[2-(3-chlorophenyl)ethoxy]quinazoline] | 80%
c1ccc(CCCCOc2ncnc3ccccc23)cc1 [Example 42, 4-(4-phenylbutoxy)quinazoline] | 100%
Cc1cc(C)c(CCOc2ncnc3ccccc23)c(C)c1 [Example 43, 4-[2-(2,4,6-trimethylphenyl)ethoxy]quinazoline] | 0%
Fc1cccc2c(OCCc3ccc(Cl)cc3)ncnc12 [Example 55, 4-[2-(4-chlorophenyl)ethoxy]-8-fluoroquinazoline] | 0%

same assay, conditions: percent mortality; rate not given

Compound | MA RESULTS %
Clc1cccc(CCOc2ncnc3ccccc23)c1 [Example 41, 4-[2-(3-chlorophenyl)ethoxy]quinazoline] | 100%
